One assay has as its system ASCs. As to the kind of experiment: Aggregation of fresh SVF or cultured ASCs in suspension buffer. In kind it is cell-based, porcine or human. The conditions noted are these: for concentration dependence of inhibition of ASC aggregation: EDTA detached ASCs, 2 hours vigorous shaking. On the procedure:
SVF was isolated from either excised dorsal hump (porcine) or lipoaspirated subcutaneous (human) adipose tissues using reagents and protocols supplied by Tissue Genesis Inc. (TGI). Cells were used either fresh or after enrichment for stromal cells, containing adipose-derived stem cells (ADSC), by attachment to and growth on uncoated tissue culture plastic. Low passage (P1-P4) cultured ASCs were detached from plastic by 2 mM EDTA treatment. 2−3×10^6 fresh SVF or cultured ASCs were incubated for increasing times in 1 ml of TGI suspension buffer, containing human serum proteins, under varying conditions as indicated in Figure legends. Cell suspensions were vigorously rocked during incubation. At the times indicated the suspensions were observed macroscopically, noting aggregate size and number, as well as microscopically, to quantitate aggregates (defined as a tightly associated grouping of 4 or more cells) as well as individual cells.

Another assay concerns ASC. Nature of the assay: ASC proliferation in presence of heparin. In kind it is cell-based.
Another assay has as its system freshly isolated ASC. As to the kind of experiment: Observation of aggregation of freshly isolated ASC after resuspension in delivery medium. Type of assay: cell-based, pig. The settings on record: pre-treating SVF with heparin before infusion. On the procedure:
Isolation of the adipose stromal-vascular fraction (SVF). Fat was isolated using equipment and reagents from TGI-100 kits (Tissue Genesis, Inc, Honolulu, Hi., USA) following the manufacturer's instructions, with modifications as necessary in order to process the subcutaneous pig fat. Briefly, the fat was finely minced in a sterile container before washing 3 times with the supplied buffer solution. The fat was transferred into 50 ml conical screw cap centrifuge tubes before adding 10 ml of filtered ADIPASE™ solution. The tissue was dissociated by incubation in an Enviro-Genie incubator shaker for 2.5 hours, instead of the manufacturer's recommended digestion time for human fat of 45 minutes. The stromal-vascular pellet was recovered by centrifugation, filtered serially through 100 μm then 40 μm diameter pore size polypropylene filters (FALCON®). Viable cell counts were obtained using a hemacytometer and staining was performed with Trypan blue. Only cells larger than approximately 8 μm in diameter were counted. The cells were resuspended in a 20 ml cell the supplied suspension medium immediately before delivery. In the ASC-H group, the suspension medium contained 50 U heparin/ml. The cells were continuously mixed gently by hand until loaded into the syringe for delivery.
Preparative yield of ASC. […]

“Also recorded” adds a separate entry of the source.

With `O=C(O)CN(CCN(CC(=O)O)CC(=O)O)CC(=O)O` [EDTA, ethylenediaminetetra-acetic acid], in the assay on ASCs (EDTA then 7 mM Ca^2+), the “effect of EDTA on aggregation with co-addition of Ca^2+” value is reported as “reversed”. The “cell aggregation with EDTA in the buffer” value with ASCs (cultured ASCs, EDTA during incubation) is listed as “inhibited; also recorded: blocked”.
As for heparin, the ASC proliferation entry in the assay on ASC (highest concentration, 400 μg/ml) is “totally inhibited”; with ASC (lowest concentration used, 50 μg/ml), “inhibitory”. The “aggregation at the highest concentration used” value with ASCs (400 μg/ml) is listed as “still persisted”. The “concentration dependence of inhibition of ASC aggregation” value with ASCs was “dose dependent”; in the assay on ASCs (listed as Heparin), “concentration dependent”. For the same compound, in the assay with ASCs (equals 100 U/ml), the “most effective concentration used for inhibition of ASC aggregation” value is 400 µg/mL. In the assay on ASCs (heparin 400 μg/ml final conc. in buffer), the aggregation of cells entry is “inhibits”. Further, the “formation of aggregates of all sizes” value in the assay on ASCs (small 4-10 cells, large >10 cells, Image J counts) is “blocked”. Besides, in the assay with freshly isolated ASC, the “aggregation and subsequent microinfarctions” value is reported as “substantially diminished”.
trypsin: in the assay with ASCs (cultured ASCs, trypsin for 2 minutes), the “cell aggregation after trypsin pretreatment” value is recorded as “inhibited; also recorded: blocked”.
